According to patent publication US7718784B2, “Switchable nucleic acids for diagnostics, screening and molecular electronics” (priority 2003, dated 2010):
[dabcylT] = deoxythymidine carrying a dabcyl quencher; {FAM} = fluorescein (FAM) label; d = 2'-deoxy (DNA); r = 2'-OH (RNA)

Experiments:
NCp7 = NCp7 (Human immunodeficiency virus type 1 group M subtype B, UniProt P12493); conditions: for difference in fluorescence intensity (factor): DNA analogs of the two extreme states H and O
Source text: This switch has fluorescent labels, * (e.g., FAM, 6-carboxy-fluorescein), at the 5′-end of the chain and Q (a quencher, e.g., dabcyl) near the 3′-end of the DNA segment (light font). […] In the O species, * and Q are within the Förster distance for efficient quenching. However, they are far apart in the extended hairpin form, H, and the switch emits strongly.
By altering the DNA sequence, K1 is adjusted between 0.1-0.01 (K1=[O]/[H]). […] Upon addition of NCp7 (P), the K1 equilibrium shifts to the right, and the fluorescence signal decreases. The switch is set to a null signal in the presence of a slight excess of P, and is triggered to emit when a competitor, C, sequesters the protein in the P.C complex. […] Knowledge of K1, K2, and the input concentrations, Ot, Pt, and Ct will allow estimation of K3.
This allows the equilibrium shift upon changing the sequence, or adding NCp7, to be monitored very easily. Simply put, the fluorescence of pure H and O are known, so their populations in a mixed system will be just a linear function of the measured fluorescence.

NC = conditions: cited from earlier work
proviral DNA synthesis = conditions: cited from earlier work

FAM-d(GCATGCCTCCGCATGC(T-dabcyl)CCAACACGC)-UAGCGGUGGCUAGC (DNA GCATGCCTCCGCATGCTCCAACACGCUAGCGGUGGCUAGC; sugars from the 5' end d26 r14, [dabcylT] at 17, 5' {FAM}, backbone and methylation of C not given here) [M2]
fluorescence of switch without and with NCp7 (NCp7): bright in the absence of NCp7 and dark in its presence
difference in fluorescence intensity (factor) (NCp7): 10

FAMd(GCTAGCCACCGCTAGC(T-dabcyl)CCAACACGC)-UAGCGGUGGCUAGC [M1]
difference in fluorescence intensity (factor) (NCp7): 10

FAMd(GCTATCCACCGATAGC(T-dabcyl)CCAACACGC)-UAGCGGUGGCUAGC (DNA GCTATCCACCGATAGCTCCAACACGCUAGCGGUGGCUAGC; chemistry not fully specified) [M3]
equilibration with NCp7 (NCp7; 10 nM concentration of the switch): within a minute

c(F-C-dW-R-C-K)
competition with NC for in vitro recognition of its RNA, DNA and protein targets (NC): competes with NC
In vivo effects (proviral DNA synthesis): suggest impairment of proviral DNA synthesis
